From ChEMBL document CHEMBL1141848, “Prenylagaramides A and B, new cyclic peptides from two strains of oscillatoria agardhii” (J Nat Prod, 1999)
Calls of active or inactive are those of the source. Residues, ends and D or L forms follow the SMILES beside them. *: point of attachment. Prenyl = CC(C)=CC*

Key:
[1] = molecular target: Plasminogen (Homo sapiens) (UniProt P00747); assay: Inhibition of plasmin
[2] = Inhibition of elastase
[3] = molecular target: Prothrombin (Homo sapiens) (UniProt P00734); assay: Inhibition of thrombin
[4] = Inhibition of chymotrypsin
Papain (Carica papaya) = molecular target: T1, Papain (Carica papaya) (UniProt P00784); assay: Inhibition of papaya papain
T1 sequence (whole entry): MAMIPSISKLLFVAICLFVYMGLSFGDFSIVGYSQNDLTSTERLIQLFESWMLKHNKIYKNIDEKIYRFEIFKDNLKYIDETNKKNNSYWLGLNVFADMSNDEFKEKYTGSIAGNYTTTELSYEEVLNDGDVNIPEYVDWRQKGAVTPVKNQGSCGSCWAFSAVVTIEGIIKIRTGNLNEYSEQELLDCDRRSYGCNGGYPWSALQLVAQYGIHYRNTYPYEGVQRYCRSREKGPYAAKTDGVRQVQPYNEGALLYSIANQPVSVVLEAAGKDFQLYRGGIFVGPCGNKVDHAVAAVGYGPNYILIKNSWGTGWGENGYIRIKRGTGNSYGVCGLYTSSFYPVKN

[5] = Inhibition of trypsin
P388 = assay: Cytotoxicity against mouse P388 cells; type: functional, cell-based
[6] = molecular target: Cytosol aminopeptidase (Homo sapiens) (UniProt P28838); assay: Inhibition of leucine amino peptidase
Sequence of Cytosol aminopeptidase (Homo sapiens) (P28838 whole entry): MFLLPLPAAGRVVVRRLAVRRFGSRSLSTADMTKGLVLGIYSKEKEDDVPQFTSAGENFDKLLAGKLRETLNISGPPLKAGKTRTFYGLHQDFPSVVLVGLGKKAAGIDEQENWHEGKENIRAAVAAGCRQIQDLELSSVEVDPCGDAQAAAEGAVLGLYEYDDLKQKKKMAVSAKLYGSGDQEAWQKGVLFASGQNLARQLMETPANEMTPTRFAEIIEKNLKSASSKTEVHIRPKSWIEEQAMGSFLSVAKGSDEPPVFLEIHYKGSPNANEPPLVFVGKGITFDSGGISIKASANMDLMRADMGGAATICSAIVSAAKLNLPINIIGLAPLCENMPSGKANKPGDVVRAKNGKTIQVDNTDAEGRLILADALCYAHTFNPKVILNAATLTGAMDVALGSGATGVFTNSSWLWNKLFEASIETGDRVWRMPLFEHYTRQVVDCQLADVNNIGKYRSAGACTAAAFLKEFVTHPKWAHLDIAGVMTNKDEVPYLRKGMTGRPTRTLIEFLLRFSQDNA

Measured: Activity

Sequence of Plasminogen (Homo sapiens) (P00747 97-580 limits assumed): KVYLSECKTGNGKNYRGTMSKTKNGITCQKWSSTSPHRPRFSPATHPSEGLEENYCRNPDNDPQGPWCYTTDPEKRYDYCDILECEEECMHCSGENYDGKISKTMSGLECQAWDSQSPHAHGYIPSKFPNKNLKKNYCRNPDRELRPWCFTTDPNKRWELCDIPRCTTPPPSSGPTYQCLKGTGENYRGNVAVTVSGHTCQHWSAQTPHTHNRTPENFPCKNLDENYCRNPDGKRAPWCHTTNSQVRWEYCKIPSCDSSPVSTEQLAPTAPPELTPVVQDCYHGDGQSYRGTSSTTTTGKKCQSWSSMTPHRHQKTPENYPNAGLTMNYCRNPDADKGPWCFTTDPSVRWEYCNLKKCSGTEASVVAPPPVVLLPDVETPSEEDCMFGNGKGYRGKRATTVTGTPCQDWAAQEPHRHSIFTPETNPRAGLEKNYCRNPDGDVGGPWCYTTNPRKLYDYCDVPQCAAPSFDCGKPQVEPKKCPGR
Sequence of Plasminogen (Homo sapiens) (P00747 581-810 limits assumed): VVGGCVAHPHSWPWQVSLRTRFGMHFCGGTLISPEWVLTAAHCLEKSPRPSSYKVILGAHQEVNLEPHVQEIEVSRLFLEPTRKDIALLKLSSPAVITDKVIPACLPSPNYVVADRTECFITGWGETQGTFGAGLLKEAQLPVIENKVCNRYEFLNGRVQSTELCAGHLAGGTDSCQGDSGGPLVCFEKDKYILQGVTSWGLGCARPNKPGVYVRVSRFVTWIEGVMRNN

CC[C@H](C)[C@@H]1NC(=O)[C@@H]2CCCN2C(=O)[C@H](Cc2ccc(O)cc2)NC(=O)[C@H](CC(C)C)NC(=O)[C@H](Cc2ccc(OCC=C(C)C)cc2)NC(=O)[C@@H]2CCCN2C(=O)[C@H](CC(N)=O)NC1=O (cyclo(INPY(Prenyl)LYP))
inactive: all assays above

CC(C)=CCOc1ccc(C[C@@H]2NC(=O)[C@@H]3CCCN3C(=O)[C@H](CC(N)=O)NC(=O)[C@H](Cc3ccccc3)NC(=O)[C@H](Cc3ccccc3)NC(=O)[C@H](CCC(=O)O)NC(=O)CNC(=O)[C@H]([C@@H](C)O)NC(=O)CNC2=O)cc1 (cyclo(EFFNPY(Prenyl)GTG))
inactive: all assays above
